In US9636417B2, “Mucosal membrane receptor and uses thereof” (Universiteit Gent, priority 2008, dated 2017):
Entries after “also recorded” stand apart in the source; their conditions may differ.

Experiments:
[1] = system: BBMV of F4R+ pigs; assay: F4 binding to BBMV after glycosidase or periodate treatment; parameters: species or system pig
Description: To remove sialic acid from the pAPN, 2 mg/ml BBMV from F4R+ pigs were incubated with soluble neuraminidase from Arthrobacter urefaciens (Calbiochem, specific for α2-3,6,8,9 linked sialic acid) for 3 hours at 37° C. according to the manufacturer's instructions. Fetuin, a sialic acid containing protein was used as a positive control and the buffer in which the neuraminidase was provided, was used as a negative control. Brush border membrane vesicles from F4R+ pigs were treated with N-glycosidase F (NEB, Beverly, Mass.) or with endoglycosidase H (NEB Beverly, Mass.) according to the manufacturer's instructions to remove all N-glycans (high mannose and complex, sialic acid containing glycans) or N-glycans of the high mannose type, respectively. RNAse B was used as a positive control and the buffer in which the enzyme was provided, was used as a negative control.
Brush border membrane vesicles from F4R+ pigs were treated with variable concentrations of NaIO4 (Sigma-Aldrich Chemie GmbH, Steinheim, Germany) in 50 mM sodiumacetate, pH 4.5, at 37° C. in the dark. Reactions were stopped by the addition of ethylene glycol to a final concentration of 20 mM. Brush border membrane vesicles from F4R− pigs were treated with the same […] and were used as a negative control.

[2] = system: pAPN-BHK-21 cells; assay: Endocytosis assay (confocal microscopy) of FLUOS-labeled-F4 with chemical inhibitors; type: cell-based, porcine; settings: for effect on F4 internalization in pAPN-BHK cells: different concentrations, inhibitor added 30 min before FLUOS-labeled-F4
Description: Cells were then washed with PBS supplemented with 0.1 mM CaCl2 and 1 mM MgCl2 (PBS+) to remove unbound FLUOS-labeled-F4 and shifted to 37° C. to start endocytosis. After different time intervals, cells were fixed with 3% paraformaldehyde (PF), permeabilized with 0.1% Triton X-100 and stained with 200 nM phalloidin-Texas Red (Molecular Probes, Eugene, Oreg., USA) in PBS+ for 1 h at 37° C. To analyze the effect of different inhibitors on endocytosis, cells were incubated with different concentrations of each inhibitor (Table 1). Inhibitors were added 30 min before incubation with FLUOS-labeled-F4 (25 μg). Cells were fixed with 3% PF at the indicated times. For each concentration of the chemical inhibitors, the viability of the cells was analyzed by flow cytometry after the addition of 10 μg propidium iodide (Molecular Probes, Eugene, Oreg., USA). The number of vesicles internalized in the cells was counted using confocal microscopy. Confocal images were acquired using a Leica TCS SP2 laser scanning spectrum confocal system (Leica Microsystems), using an argon 488-nm laser line and a […] 543-nm laser line to excite FITC and Texas Red respectively. Images were merged using Leica confocal software.

[3] = biological target: T1, F4R on brush border membrane vesicles (BBMV) (Sus scrofa, UniProt P15145); assay: biochemical; type: binding, pig; settings: read-out: inhibition of adhesion of F4R+ BBMV to F4ac
T1 construct: Brush border membrane vesicles (BBMV) of the small intestine were prepared from the F4R+ and F4R− pigs; from tissue; host or cells: pig jejunum: enterocyte preparations, BBMV, ligated jejunal loops
T1 sequence (P15145 2-963): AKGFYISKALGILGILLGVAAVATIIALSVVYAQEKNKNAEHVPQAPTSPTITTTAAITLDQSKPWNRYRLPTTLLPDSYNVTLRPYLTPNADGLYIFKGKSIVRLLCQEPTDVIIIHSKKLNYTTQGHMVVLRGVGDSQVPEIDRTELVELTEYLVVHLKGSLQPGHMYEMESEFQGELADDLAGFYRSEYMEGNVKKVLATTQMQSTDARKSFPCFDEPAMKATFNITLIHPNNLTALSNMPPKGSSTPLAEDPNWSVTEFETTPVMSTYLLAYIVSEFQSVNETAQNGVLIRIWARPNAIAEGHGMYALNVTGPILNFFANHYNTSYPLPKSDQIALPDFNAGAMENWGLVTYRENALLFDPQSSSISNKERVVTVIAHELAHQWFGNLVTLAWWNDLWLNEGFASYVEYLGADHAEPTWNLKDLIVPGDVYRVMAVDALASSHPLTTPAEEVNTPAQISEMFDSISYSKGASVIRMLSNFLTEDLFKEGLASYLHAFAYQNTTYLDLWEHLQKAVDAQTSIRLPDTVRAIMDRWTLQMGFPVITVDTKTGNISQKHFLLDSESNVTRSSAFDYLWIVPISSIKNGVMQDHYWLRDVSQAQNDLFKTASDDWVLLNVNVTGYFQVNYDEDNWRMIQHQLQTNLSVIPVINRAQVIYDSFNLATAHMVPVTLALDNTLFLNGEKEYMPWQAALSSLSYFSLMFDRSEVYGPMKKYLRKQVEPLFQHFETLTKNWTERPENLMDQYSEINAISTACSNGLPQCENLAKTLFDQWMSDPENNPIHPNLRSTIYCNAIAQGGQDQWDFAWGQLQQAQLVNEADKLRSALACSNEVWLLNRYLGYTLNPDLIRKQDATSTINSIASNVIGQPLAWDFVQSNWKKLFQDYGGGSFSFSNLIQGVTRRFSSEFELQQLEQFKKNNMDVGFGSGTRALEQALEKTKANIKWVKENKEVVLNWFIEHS
Description: Brush border membrane vesicles (BBMV) of the small intestine were prepared from the F4R+ and F4R− pigs by the method of Kessler (1978) with a slight modification. Enterocytes were washed twice in PBS with 0.1 mM PMSF and were resuspended in Tris-HCl buffer (2 mM, pH 7.2) containing 50 mM mannitol in ratio 3:1 (vol/vol) whereafter cells were homogenized for 2 min with an Ultra Turrax (Janke & Kunkel, I K A Labortechnik, Staufen, Germany). Subsequently, CaCl2 was added to the homogenate to a final concentration of 10 mM and placed on ice for 15 min. Then the homogenate was centrifugated at 27,000×g for 30 min and washed with Tris buffer (pH 7.5) containing 50 mM mannitol and 10 mM HEPES and centrifuged again. The pellet was resuspended in the same buffer and used for the study. The protein concentration of the obtained BBMV was determined using the bicinchoninic acid (BCA) reaction with bovine serum albumin (BSA) as standard (ICN Biomedicals, Belgium).
The interaction between the F4ac fimbriae and BBMV or enterocytes of F4R+ and F4R− pigs was analyzed with the BIAcore®2000 biosensor (Uppsala, Sweden) using the CM3 chip. […]

[4] = biological target: T2, F4R on enterocytes (Sus scrofa, UniProt P15145); assay: biochemical; type: binding, pig; settings: read-out: inhibition of adhesion of F4R+ enterocytes to F4ac
T2 construct: Brush border membrane vesicles (BBMV) of the small intestine were prepared from the F4R+ and F4R− pigs; from tissue; host or cells: pig jejunum: enterocyte preparations, BBMV, ligated jejunal loops
T2 sequence (P15145 2-963): T1 sequence (P15145 2-963)
Description: The interaction between the F4ac fimbriae and BBMV or enterocytes of F4R+ and F4R− pigs was analyzed with the BIAcore®2000 biosensor (Uppsala, Sweden) using the CM3 chip. This has a short carboxymethyldextran surface to allow immobilization of F4 fimbriae via free NH2-groups using an amine-coupling kit (Biacore, Uppsala, Sweden) containing N-hydroxysuccinimide (NHS), N-ethyl-N′-[(3-dimethylamino)-propyl]-carbodiimide hydrochloride (EDC) and ethanolamine-HCl. Hereto, 100 μl of a mixture of NHS:EDC (1:1) was injected at a flow rate of 10 μl/min at 25° to activate the dextran matrix on the sensor chip, followed by F4ac at a concentration of 100 μg/ml in 0.1 M glycine buffer pH 2.3 until the amount (mol) of immobilized F4 equilized more than 500 resonance units (RU). […] Subsequently, the remaining active sites of the matrix were blocked with 1 M ethanolamine-HCl and washed with HBS-N (0.01 M HEPES, 0.15 M NaCl). […] All samples used in further experiments were diluted in HBS-N buffer, which also served as running buffer during the experiments.
The first approach was to pre-incubate the F4R+ and F4R− enterocytes or BBMV with 0, 50 and 100 μg/ml F4ac fimbriae, while gently shaking. After 1 h pre-incubation at room temperature, a gentle short spin centrifugation was performed. […]

[5] = system: wheat germ agglutinin (WGA); assay: SPR specificity control: bestatin pre-incubated BBMV and enterocytes on immobilized WGA; type: binding; settings: bestatin 0 mM, 1 mM and 10 mM; F4R+ pigs
Description: The interaction between the F4ac fimbriae and BBMV or enterocytes of F4R+ and F4R− pigs was analyzed with the BIAcore®2000 biosensor (Uppsala, Sweden) using the CM3 chip. This has a short carboxymethyldextran surface to allow immobilization of F4 fimbriae via free NH2-groups using an amine-coupling kit (Biacore, Uppsala, Sweden) containing N-hydroxysuccinimide (NHS), N-ethyl-N′-[(3-dimethylamino)-propyl]-carbodiimide hydrochloride (EDC) and ethanolamine-HCl. Hereto, 100 μl of a mixture of NHS:EDC (1:1) was injected at a flow rate of 10 μl/min at 25° to activate the dextran matrix on the sensor chip, followed by F4ac at a concentration of 100 μg/ml in 0.1 M glycine buffer pH 2.3 until the amount (mol) of immobilized F4 equilized more than 500 resonance units (RU). Thousand RU corresponds to a change in the surface concentration of 1 ng/mm2 (Stenberg 1991). Subsequently, the remaining active sites of the matrix were blocked with 1 M ethanolamine-HCl and washed with HBS-N (0.01 M HEPES, 0.15 M NaCl). […] All samples used in further experiments were diluted in HBS-N buffer, which also served as running buffer during the experiments.
To check the specificity of blocking of bestatin, F4R+ and F4R− enterocytes or BBMV were pre-incubated with 0, 1 mM and 10 mM bestatin, while gently shaking for 1 hour at room temperature and injected in the WGA coated flow cell. […]

[6] = biological target: T3, pAPN transfected BHK-21 cells (Sus scrofa, UniProt P15145); assay: Flow cytometry of FLUOS-labeled-F4 binding to pAPN transfected BHK-21 cells; type: cell-based, porcine
T3 construct: expressed in transfected cells; host or cells: BHK-21 (baby hamster kidney), G418-selected; gift
T3 sequence (P15145 1-963): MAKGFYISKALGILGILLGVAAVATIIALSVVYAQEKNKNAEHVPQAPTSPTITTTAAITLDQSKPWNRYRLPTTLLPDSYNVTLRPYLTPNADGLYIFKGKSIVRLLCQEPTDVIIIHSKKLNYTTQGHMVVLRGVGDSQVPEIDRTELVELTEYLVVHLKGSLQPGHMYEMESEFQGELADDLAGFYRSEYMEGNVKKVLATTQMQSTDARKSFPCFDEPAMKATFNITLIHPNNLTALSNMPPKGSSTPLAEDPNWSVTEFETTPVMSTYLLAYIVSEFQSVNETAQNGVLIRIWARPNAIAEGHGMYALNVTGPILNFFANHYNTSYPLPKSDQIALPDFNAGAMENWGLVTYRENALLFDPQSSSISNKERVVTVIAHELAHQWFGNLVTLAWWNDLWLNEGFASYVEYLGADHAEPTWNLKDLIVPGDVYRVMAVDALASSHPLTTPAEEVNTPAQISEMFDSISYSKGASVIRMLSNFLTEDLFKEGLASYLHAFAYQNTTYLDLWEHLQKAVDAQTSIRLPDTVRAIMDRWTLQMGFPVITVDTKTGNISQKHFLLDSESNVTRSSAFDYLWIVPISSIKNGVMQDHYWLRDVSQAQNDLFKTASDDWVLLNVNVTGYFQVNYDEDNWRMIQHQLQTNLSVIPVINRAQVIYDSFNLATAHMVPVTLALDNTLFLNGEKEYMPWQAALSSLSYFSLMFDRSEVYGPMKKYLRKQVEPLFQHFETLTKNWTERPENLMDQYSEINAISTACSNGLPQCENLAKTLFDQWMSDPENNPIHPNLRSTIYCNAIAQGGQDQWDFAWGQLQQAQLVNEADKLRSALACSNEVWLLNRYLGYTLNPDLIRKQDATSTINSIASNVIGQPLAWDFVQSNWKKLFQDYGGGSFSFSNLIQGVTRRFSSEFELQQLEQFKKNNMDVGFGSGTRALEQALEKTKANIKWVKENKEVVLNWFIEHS
Description: The BHK-21 and pAPN transfected BHK-21 cells were kindly gifted from Dr. Enjuanes and Dr. Delmas. The BHK-21 cells were cultured in DMEM with 5% FCS, 1% L-Glu, 1% P/S, 1% sodiumpyruvate (Gibco BRL, Life Technologies Inc., Paisley, Scotland), 1% non-essential amino acids (Gibco BRL, Life Technologies Inc., Paisley, Scotland). The pAPN transfected BHK-21 cells were grown in the same medium supplemented with 1.5 mg/ml geneticin G418 (Sigma-Aldrich Chemie GmbH, Steinheim, Germany).
To block the internalization of FLUOS-labeled-F4, 50 μM bestatin, an inhibitor of aminopeptidase N (Sigma-Aldrich Chemie GmbH, Steinheim, Germany) was incubated with BHK-21 or pAPN transfected BHK-21 cells 3 hours before addition of 25 μg FLUOS-labeled-F4. Afterwards, cells were washed 3 times with PBS. The BHK-21 or pAPN transfected BHK-21 cells were analyzed by flow cytometry with a FACScanto using CellDiva software (BD Biosciences). Ten thousand cells were analysed for each sample, and three parameters were used for further analysis: forward light scattering, sideward light scattering and green fluorescence. The median fluorescence intensity was used to measure the amount of FLUOS-labeled-F4 to the cells.

## [O-][I+3]([O-])([O-])O [NaIO4]
[1]; 25 mM NaIO4, 30 min
  binding of F4 to the receptor in BBMV of F4R+ pig: greatly reduced
[1]; periodate, two hours treatment
  F4ac binding to the BBMV of F4R+ pigs: abolishing; also recorded: abolished

## NC12CC3CC(CC(C3)C1)C2 [amantadine]
[2]
  effect on F4 internalization in pAPN-BHK cells: reduced the F4 internalization

## CC(C)C[C@H](NC(=O)[C@@H](O)[C@H](N)Cc1ccccc1)C(=O)O [bestatin]
[2]; bestatin 50 μM, added 30 minutes before FLUOS-labeled F4, pAPN-BHK cells
  FLUOS-labeled F4 internalization: 18±5.3%
[3]
  inhibition at 1000 µM: 4 ± 1.2%
  inhibition at 10000 µM: 10 ± 2%
[4]
  inhibition at 1000 µM: 22 ± 3.3%
  inhibition at 10000 µM: 72 ± 1%
[5]
  interaction of pre-incubated BBMV or enterocytes with WGA: No difference in interaction
[6]
  mean fluorescence intensity after treatment of bestatin: 1001±15

## C=C1[C@@H](C)[C@H]2[C@H](Cc3ccccc3)NC(=O)[C@]23[C@H](OC(C)=O)/C=C/[C@@](C)(O)C(=O)[C@@H](C)C/C=C/[C@H]3[C@@H]1O [cytochalasin D]
[2]
  effect on F4 internalization in pAPN-BHK cells: reduced the F4 internalization

## OC[C@H]1O[C@@](CO)(O[C@H]2O[C@H](CO)[C@@H](O)[C@H](O)[C@H]2O)[C@@H](O)[C@@H]1O [hypertonic sucrose, sucrose]
[2]
  effect on F4 internalization in pAPN-BHK cells: reduced the F4 internalization

## C/C1=C/C(=O)O[C@@H]2C[C@@H](CC[C@H](C)/C=C\CC1)O[C@@](O)([C@@H]1CSC(=O)N1)C2 [latrunculin B]
[2]
  effect on F4 internalization in pAPN-BHK cells: no effect

## dynamin inhibitory peptide
[2]
  effect on F4 internalization in pAPN-BHK cells: reduced the F4 internalization
